Experimental data: publication PMC6120666 (The EMBO Journal, 2018)

Legend:
NOD2/HEKBlue cells = test: hNOD2-HEKBlue L18-MDP-induced NF-κB reporter assay; format: cell-based, human; settings: for IC50: Homo sapiens, HEK-Blue, L18-MDP-induced NF-κB reporter, average ± SD of at least three titrations
Procedure: For HEKBlue assay, cells were seeded into clear 96‐well plates at 7.5 × 10^3 cells/well and allowed to attach for 48 h. On the day of the experiment, media was changed to 100 μl of HEKBlue detection media (InvivoGen). Inhibitors were diluted and added in 0.5 μl DMSO 15 min prior to the addition of 1 ng/ml L18‐MDP (InvivoGen). After 8–9 h, absorbance at 620 nm was measured using Victor3V plate reader (Perkin Elmer, Waltham, MA). Values of media‐only wells were subtracted and %inhibition for each compound concentration relative to the DMSO/L18‐MDP‐treated controls was calculated. Inhibition values ± SD were fitted by non‐linear regression using Prism software (GraphPad Software, La Jolla, CA) to calculate IC50 values. For THP1Blue assay, 1 × 10^5 cells were seeded in 200 μl of RPMI media in 96‐well plates and treated with inhibitors in 0.5 μl DMSO for 15 min prior to the addition of 10 μg/ml MDP, 10 ng/ml Pam3CSK4, 10 ng/ml E. coli LPS, or 1 × 10^7 cells/ml heat‐killed L. monocytogenes (InvivoGen) for 24 h. After induction, 20 μl of media was mixed with 180 μl of QUANTI‐Blue reagent (InvivoGen) and incubated at 37°C for 3–4 h, followed by absorbance measurement at 620 nm. IC50 values were calculated as described for HEKBlue assay.
Cayman Chemical Company, Ann Arbor, MI), GSK583 (#HY-100339, MedChem Express, South Brunswick, NJ), WEHI-345 (MedKoo Biosciences, Morrisville, NC), Compound A (CpA, a kind gift from TetraLogic Pharmaceuticals, Malvern, PA). Generation of the CSLP compound series is described in Suebsuwong et al. 2018 (manuscript in preparation). hNOD2-HEKBlue and THP1Blue assays
For HEKBlue assay, cells were seeded into clear 96 well plates at 7.5x10^3 cells/well and allowed to attach for 48 h. On the day of the experiment, media was changed to 100 μl of HEKBlue detection media (InvivoGen). Inhibitors were diluted and added in 0.5 μl DMSO 15 min prior to the addition of 1 ng/ml L18-MDP (InvivoGen). After 8-9 h, absorbance at 620 nm was measured using Victor3V plate reader (Perkin Elmer, Waltham, MA). Values of media-only wells were subtracted and %inhibition for each compound concentration relative to the DMSO/L18-MDP-treated controls were calculated.
Inhibition values + StDev were fitted by non-linear regression using Prism software (GraphPad Software, La Jolla, CA) to calculate IC50 values. For THP1Blue assay, 1x10^5 cells were seeded in 200 μl of RPMI media in 96 well plates and treated with inhibitors in 0.5 μl DMSO 15 min prior to the addition of 10 µg/ml MDP, 10 ng/ml Pam3CSK4, 10 ng/ml E. coli LPS or 1x10^7 cells/ml heat-killed L. monocytogenes (InvivoGen) for 24 h. After induction, 20 μl of media was mixed with 180 μl of QUANTI-Blue reagent (InvivoGen) and incubated at 37 °C for 3-4 h, followed by absorbance measurement at 620 nm. IC50 values were calculated as described for HEKBlue assay. […]

[1] = target: T1, XIAP BIR2 - RIPK2 interaction (Homo sapiens, UniProt O43353); test: GST-BIR2-XIAP pulldown of RIPK2; format: binding; settings: for pulldown of RIPK2 by GST-BIR2-XIAP from cell lysates: U2OS/NOD2 lysates, inhibitors at 100-fold IC50 of RIPK2 kinase activity; for GST-BIR2-XIAP binding to recombinant RIPK2 kinase domain: recombinant human RIPK2 KD (dephosphorylated), same inhibitor concentrations
T1 construct: U2OS/NOD2 cells were lysed in TBS lysis buffer; endogenous in cells; host or cells: U2OS/NOD2 cell lysate (RIPK2); E. coli BL21 (GST-BIR2-XIAP)
Procedure: For co‐immunoprecipitation of HA‐XIAP with RIPK2, transfected and treated cells were lysed in TBS buffer containing 0.5% NP‐40, cOmplete and PhosSTOP inhibitors (Roche) and the lysate was cleared by centrifugation. The lysates were incubated with anti‐HA‐agarose overnight, washed 3× with lysis buffer, and analyzed by immunoblotting. For GST pulldown experiments, U2OS/NOD2 cells were lysed in TBS lysis buffer containing 0.5% NP‐40, cOmplete and PhosSTOP inhibitors (Roche). Cleared lysates were pretreated with kinase inhibitors or DMSO and incubated with GST‐XIAP‐BIR2 bound to Glutathione Sepharose at 4°C overnight. Bound material was washed 3× with lysis buffer or PBS, eluted with 15 mM Glutathione in PBS, and analyzed by immunoblotting. […] The bound material was eluted and analyzed as described above.
For coimmunoprecipitation of HA-XIAP with RIPK2, transfected and treated cells were lysed in TBS buffer containing 0.5% NP-40, cOmplete and PhosSTOP inhibitors (Roche) and the lysate was cleared by centrifugation. The lysates were incubated with anti-HA-agarose overnight, washed 3x with lysis buffer and analyzed by immunoblotting. For GST pull-down experiments, U2OS/NOD2 were lysed in TBS lysis buffer containing 0.5% NP-40, cOmplete and PhosSTOP inhibitors (Roche).
Cleared lysates were pretreated with kinase inhibitors or DMSO and incubated with GST-XIAP-BIR2 bound to Glutathione Sepharose at 4 °C overnight. Bound material was washed 3x with lysis buffer or PBS, eluted with 15 mM Glutathione in PBS and analyzed by immunoblotting. In pull-down […]
inhibitors or DMSO control in PBS were added together with RIPK2 kinase domain to GST-XIAP-BIR2 bound to Glutathione Sepharose. The bound material was eluted and analyzed as described above. […]

| Compound | IC50 (NOD2/HEKBlue cells) | pulldown of RIPK2 by GST-BIR2-XIAP from cell lysates [1] | GST-BIR2-XIAP binding to recombinant RIPK2 kinase domain [1] | fold lower cellular potency than against RIPK2 kinase in vitro (NOD2/HEKBlue cells; Table 1, Fig 4A) |
| --- | --- | --- | --- | --- |
| CCCS(=O)(=O)Nc1cc(-c2cc(-c3ccc(N4CCNCC4)cc3)cnc2N)cc(F)c1OC [CSLP37] | 26.3 ± 3.7 nM | efficiently antagonized | still antagonized |  |
| CCCS(=O)(=O)Nc1cc(-c2cc(-c3ccc(N4CCNCC4)cc3)cnc2N)cc(OC)c1OC [CSLP43] | 1.3 ± 0.4 nM | efficiently antagonized | still antagonized |  |
| CCCS(=O)(=O)Nc1cc(-c2cc(-c3ccc(N4CCNCC4)cc3)cnc2N)ccc1O [CSLP48] | > 5000 nM | little effect |  |  |
| COc1cc(-c2cc(-c3ccc(N4CCNCC4)cc3)cnc2N)cc(F)c1OC [CSLP55] | 595 ± 69.6 nM | little effect |  |  |
| Cc1ccc(-c2nn(C(C)(C)CNC(=O)c3ccncc3)c3ncnc(N)c23)cc1 [WEHI‐345, reference compound] | 3370 nM |  |  | > 10 fold |
